Measurements: patent US20210127673A1, “HERBICIDES” (SYNGENTA PARTICIPATIONS AG, priority 2016, published 2021)

Columns and labels:
Assay type in all cases: in vivo
Settings in all cases: evaluated after 13 days
[1] = system: Echinochloa crus-galli (ECHCG); experiment: Post-emergence herbicidal activity, Echinochloa crus-galli; parameters: key: 5=total damage to plant; 0=no damage to plant
Procedure, shortened: (§1)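 Scoring runs 0 (no damage) to 5 (total damage), assessed 13 days after treatment. Seedlings 8 days post-sowing received an aqueous spray from acetone/water 50:50 with 0.5% Tween 20, then were kept at 24/16 °C, 14 h light, 65% humidity and watered twice daily.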

Avena fatua (AVEFA) [2] = experiment: Post-emergence herbicidal activity, Avena fatua
Procedure, shortened: as §1

Avena fatua (AVEFA) [3] = experiment: Pre-emergence herbicidal activity, Avena fatua; parameters: key: 5=total damage to plant; 0=no damage to plant
Procedure, shortened: (§2)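 Visual injury score, 0–5, taken 13 days after a pre-emergence spray applied one day post-sowing; spray vehicle acetone/water (50:50) with 0.5% Tween 20.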

[4] = system: Alopecurus myosuroides (ALOMY); experiment: Post-emergence herbicidal activity, Alopecurus myosuroides; parameters: key: 5=total damage to plant; 0=no damage to plant
Procedure, shortened: as §1

Lolium perenne (LOLPE) [5] = experiment: Post-emergence herbicidal activity, Lolium perenne; parameters: key: 5=total damage to plant; 0=no damage to plant
Procedure, shortened: as §1

[6] = system: Echinochloa crus-galli (ECHCG); experiment: Pre-emergence herbicidal activity, Echinochloa crus-galli; parameters: key: 5=total damage to plant; 0=no damage to plant
Procedure, shortened: as §2

[7] = system: Alopecurus myosuroides (ALOMY); experiment: Pre-emergence herbicidal activity, Alopecurus myosuroides; parameters: key: 5=total damage to plant; 0=no damage to plant
Procedure, shortened: as §2

Setaria faberi (SETFA) [8] = experiment: Post-emergence herbicidal activity, Setaria faberi; parameters: key: 5=total damage to plant; 0=no damage to plant
Procedure, shortened: as §1

Setaria faberi (SETFA) [9] = experiment: Pre-emergence herbicidal activity, Setaria faberi; parameters: key: 5=total damage to plant; 0=no damage to plant
Procedure, shortened: as §2

Lolium perenne (LOLPE) [10] = experiment: Pre-emergence herbicidal activity, Lolium perenne
Procedure, shortened: as §2

[11] = system: Triticum aestivium (TRZAW); experiment: Pre-emergence herbicidal activity, Triticum aestivium; parameters: key: 5=total damage to plant; 0=no damage to plant
Procedure, shortened: as §2

[12] = system: Triticum aestivium (TRZAW); experiment: Post-emergence herbicidal activity, Triticum aestivium; parameters: key: 5=total damage to plant; 0=no damage to plant
Procedure, shortened: as §1

O=C(NCC1CCCCC1)Nc1ccc(-c2cncc(F)c2)nc1C(F)(F)F [Compound B80]
Control of ECHCG after post-emergence application (score 0-5) ([1]; 250 g/ha): 1
Control of AVEFA after post-emergence application (score 0-5) (Avena fatua (AVEFA) [2]; 250 g/ha): 2
Control of AVEFA after pre-emergence application (score 0-5) (Avena fatua (AVEFA) [3]; 250 g/ha): 1
Control of ALOMY after post-emergence application (score 0-5) ([4]; 250 g/ha): 0
Control of LOLPE after post-emergence application (score 0-5) (Lolium perenne (LOLPE) [5]; 250 g/ha): 1
Control of ECHCG after pre-emergence application (score 0-5) ([6]; 250 g/ha): 1
Control of ALOMY after pre-emergence application (score 0-5) ([7]; 250 g/ha): 0
Control of SETFA after post-emergence application (score 0-5) (Setaria faberi (SETFA) [8]; 250 g/ha): 2
Control of SETFA after pre-emergence application (score 0-5) (Setaria faberi (SETFA) [9]; 250 g/ha): 2
Control of LOLPE after pre-emergence application (score 0-5) (Lolium perenne (LOLPE) [10]; 250 g/ha): 2
Control of TRAZW after pre-emergence application (score 0-5) ([11]; 250 g/ha): 0
Control of TRAZW after post-emergence application (score 0-5) ([12]; 250 g/ha): 0

N#CC1(NC(=O)Nc2ccc(-c3cncc(F)c3)nc2C(F)(F)F)CCC1 [Compound B81]
Control of ECHCG after post-emergence application (score 0-5) ([1]; 1000 g/ha): 5
Control of AVEFA after post-emergence application (score 0-5) (Avena fatua (AVEFA) [2]; 1000 g/ha): 3
Control of AVEFA after pre-emergence application (score 0-5) (Avena fatua (AVEFA) [3]; 1000 g/ha): 1
Control of ALOMY after post-emergence application (score 0-5) ([4]; 1000 g/ha): 1
Control of LOLPE after post-emergence application (score 0-5) (Lolium perenne (LOLPE) [5]; 1000 g/ha): 2
Control of ECHCG after pre-emergence application (score 0-5) ([6]; 1000 g/ha): 5
Control of ALOMY after pre-emergence application (score 0-5) ([7]; 1000 g/ha): 1
Control of SETFA after post-emergence application (score 0-5) (Setaria faberi (SETFA) [8]; 1000 g/ha): 5
Control of SETFA after pre-emergence application (score 0-5) (Setaria faberi (SETFA) [9]; 1000 g/ha): 5
Control of LOLPE after pre-emergence application (score 0-5) (Lolium perenne (LOLPE) [10]; 1000 g/ha): 1
Control of TRAZW after pre-emergence application (score 0-5) ([11]; 1000 g/ha): 0
Control of TRAZW after post-emergence application (score 0-5) ([12]; 1000 g/ha): 1

CSCCCOC(=O)Nc1ccc(-c2cncc(F)c2)nc1C(F)(F)F [Compound B83]
Control of ECHCG after post-emergence application (score 0-5) ([1]; 1000 g/ha): 5
Control of AVEFA after post-emergence application (score 0-5) (Avena fatua (AVEFA) [2]; 1000 g/ha): 4
Control of AVEFA after pre-emergence application (score 0-5) (Avena fatua (AVEFA) [3]; 1000 g/ha): 2
Control of ALOMY after post-emergence application (score 0-5) ([4]; 1000 g/ha): 0
Control of LOLPE after post-emergence application (score 0-5) (Lolium perenne (LOLPE) [5]; 1000 g/ha): 3
Control of ECHCG after pre-emergence application (score 0-5) ([6]; 1000 g/ha): 4
Control of ALOMY after pre-emergence application (score 0-5) ([7]; 1000 g/ha): 0
Control of SETFA after post-emergence application (score 0-5) (Setaria faberi (SETFA) [8]; 1000 g/ha): 5
Control of SETFA after pre-emergence application (score 0-5) (Setaria faberi (SETFA) [9]; 1000 g/ha): 5
Control of LOLPE after pre-emergence application (score 0-5) (Lolium perenne (LOLPE) [10]; 1000 g/ha): 2
Control of TRAZW after pre-emergence application (score 0-5) ([11]; 1000 g/ha): 0
Control of TRAZW after post-emergence application (score 0-5) ([12]; 1000 g/ha): 1

O=C(Nc1cc(Cl)cc(Cl)c1)Nc1ccc(-c2cncc(F)c2)nc1C(F)(F)F [Compound B88]
Control of ECHCG after post-emergence application (score 0-5) ([1]; 250 g/ha): 1
Control of AVEFA after post-emergence application (score 0-5) (Avena fatua (AVEFA) [2]; 250 g/ha): 1
Control of AVEFA after pre-emergence application (score 0-5) (Avena fatua (AVEFA) [3]; 250 g/ha): 0
Control of ALOMY after post-emergence application (score 0-5) ([4]; 250 g/ha): 0
Control of LOLPE after post-emergence application (score 0-5) (Lolium perenne (LOLPE) [5]; 250 g/ha): 0
Control of ECHCG after pre-emergence application (score 0-5) ([6]; 250 g/ha): 1
Control of ALOMY after pre-emergence application (score 0-5) ([7]; 250 g/ha): 0
Control of SETFA after post-emergence application (score 0-5) (Setaria faberi (SETFA) [8]; 250 g/ha): 1
Control of SETFA after pre-emergence application (score 0-5) (Setaria faberi (SETFA) [9]; 250 g/ha): 2
Control of LOLPE after pre-emergence application (score 0-5) (Lolium perenne (LOLPE) [10]; 250 g/ha): 2
Control of TRAZW after pre-emergence application (score 0-5) ([11]; 250 g/ha): 0
Control of TRAZW after post-emergence application (score 0-5) ([12]; 250 g/ha): 0

O=C(Nc1ccc(-c2cncc(F)c2)nc1C(F)(F)F)NC1CC1 [Compound B89]
Control of ECHCG after post-emergence application (score 0-5) ([1]; 1000 g/ha): 5
Control of AVEFA after post-emergence application (score 0-5) (Avena fatua (AVEFA) [2]; 1000 g/ha): 4
Control of AVEFA after pre-emergence application (score 0-5) (Avena fatua (AVEFA) [3]; 1000 g/ha): 2
Control of ALOMY after post-emergence application (score 0-5) ([4]; 1000 g/ha): 0
Control of LOLPE after post-emergence application (score 0-5) (Lolium perenne (LOLPE) [5]; 1000 g/ha): 2
Control of ECHCG after pre-emergence application (score 0-5) ([6]; 1000 g/ha): 4
Control of ALOMY after pre-emergence application (score 0-5) ([7]; 1000 g/ha): 0
Control of SETFA after post-emergence application (score 0-5) (Setaria faberi (SETFA) [8]; 1000 g/ha): 5
Control of SETFA after pre-emergence application (score 0-5) (Setaria faberi (SETFA) [9]; 1000 g/ha): 5
Control of LOLPE after pre-emergence application (score 0-5) (Lolium perenne (LOLPE) [10]; 1000 g/ha): 1
Control of TRAZW after pre-emergence application (score 0-5) ([11]; 1000 g/ha): 0
Control of TRAZW after post-emergence application (score 0-5) ([12]; 1000 g/ha): 1

CC(C)CNC(=O)Nc1ccc(-c2cncc(F)c2)nc1C(F)(F)F [Compound B90]
Control of ECHCG after post-emergence application (score 0-5) ([1]; 250 g/ha): 4
Control of AVEFA after post-emergence application (score 0-5) (Avena fatua (AVEFA) [2]; 250 g/ha): 3
Control of AVEFA after pre-emergence application (score 0-5) (Avena fatua (AVEFA) [3]; 250 g/ha): 1
Control of ALOMY after post-emergence application (score 0-5) ([4]; 250 g/ha): 0
Control of LOLPE after post-emergence application (score 0-5) (Lolium perenne (LOLPE) [5]; 250 g/ha): 2
Control of ECHCG after pre-emergence application (score 0-5) ([6]; 250 g/ha): 4
Control of ALOMY after pre-emergence application (score 0-5) ([7]; 250 g/ha): 0
Control of SETFA after post-emergence application (score 0-5) (Setaria faberi (SETFA) [8]; 250 g/ha): 5
Control of SETFA after pre-emergence application (score 0-5) (Setaria faberi (SETFA) [9]; 250 g/ha): 5
Control of LOLPE after pre-emergence application (score 0-5) (Lolium perenne (LOLPE) [10]; 250 g/ha): 1
Control of TRAZW after pre-emergence application (score 0-5) ([11]; 250 g/ha): 0
Control of TRAZW after post-emergence application (score 0-5) ([12]; 250 g/ha): 0
